This passage reports IC50 results from patent US20250221996A1, “HETEROCYCLIC COMPOUNDS, COMPOSITIONS THEREOF, AND METHODS OF TREATMENT THEREWITH” (BeiGene, Ltd., priority 2022, published 2025).

This assay deals with pERK1/2(THR202/TYR204) level in AsPC-1 cells. The assay is described as follows: pERK assay (HTRF) in AsPC-1 cell line. The format is cell-based. As to conditions: Homo sapiens, ASPC1, 2 h, 2 h compound treatment. The method in brief: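 AsPC-1 (KRAS G12D) cells, 30000/well, seeded overnight, then treated 2 h with a 10-point series at 0 to 10 μM final. Lysate pERK1/2 (Thr202/Tyr204) detected by HTRF after overnight antibody incubation at room temperature; IC50 from percent inhibition versus log concentration.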
Compound `N#Cc1c(N)sc2c(F)ccc(-c3c(C(F)(F)F)cc4c(N5CC6CCC(C5)N6)nc(OCC5(C#N)COC5)nc4c3F)c12` [Example 49, 3-(((7-(2-amino-3-cyano-7-fluorobenzo[b]thiophen-4-yl)-4-(3,8-diazabicyclo[3.2.1]octan-3-yl)-8-fluoro-6-(trifluoromethyl)quinazolin-2-yl)oxy)methyl)oxetane-3-carbonitrile] showed a concentration for half-maximal inhibition (IC50) of 103 nM.

`N#Cc1c(N)sc2c(F)ccc(-c3c(C(F)(F)F)cc4c(N5CC6CCC(C5)N6)nc(OCC5(CO)CCOCC5)nc4c3F)c12` [Example 50, 4-(4-(3,8-diazabicyclo[3.2.1]octan-3-yl)-8-fluoro-2-((4-(hydroxymethyl)tetrahydro-2H-pyran-4-yl)methoxy)-6-(trifluoromethyl)quinazolin-7-yl)-2-amino-7-fluorobenzo[b]thiophene-3-carbonitrile]: the IC50 worked out at 193 nM.

The compound `N#CCC1(COc2nc(N3CC4CCC(C3)N4)c3cc(C(F)(F)F)c(-c4ccc(F)c5sc(N)c(C#N)c45)c(F)c3n2)COC1` [Example 51, 4-(4-(3,8-diazabicyclo[3.2.1]octan-3-yl)-2-((3-(cyanomethyl)oxetan-3-yl)methoxy)-8-fluoro-6-(trifluoromethyl)quinazolin-7-yl)-2-amino-7-fluoro benzo[b]thiophene-3-carbonitrile] yielded an IC50 of 142 nM.

`CCc1cc2c(N3CC4CCC(C3)N4)nc(OCC34COC(C)(C3)C4)nc2c(F)c1-c1ccc(F)c2sc(N)c(C#N)c12` [Example 52, 4-(4-(3,8-diazabicyclo[3.2.1]octan-3-yl)-6-ethyl-8-fluoro-2-((1-methyl-2-oxabicyclo[2.1.1]hexan-4-yl)methoxy)quinazolin-7-yl)-2-amino-7-fluorobenzo[b]thiophene-3-carbonitrile] registered an IC50 of 235 nM.

With `N#Cc1c(N)sc2c(F)ccc(-c3c(C(F)(F)F)cc4c(N5CC6CCC(C5)N6)nc(OCC5(CF)COC5)nc4c3F)c12` [Example 53, 4-(4-(3,8-diazabicyclo[3.2.1]octan-3-yl)-8-fluoro-2-((3-(fluoromethyl)oxetan-3-yl)methoxy)-6-(trifluoromethyl)quinazolin-7-yl)-2-amino-7-fluoro benzo[b]thiophene-3-carbonitrile], 33 nM corresponded to half-maximal inhibition (IC50).

Consider `Cn1ccnc1N1CC(C)(COc2nc(N3CC4CCC(C3)N4)c3cc(C(F)(F)F)c(-c4ccc(F)c5sc(N)c(C#N)c45)c(F)c3n2)C1` [Example 54, 4-(4-(3,8-diazabicyclo[3.2.1]octan-3-yl)-8-fluoro-2-((3-methyl-1-(1-methyl-1H-imidazol-2-yl)azetidin-3-yl)methoxy)-6-(trifluoromethyl)quinazolin-7-yl)-2-amino-7-fluorobenzo[b]thiophene-3-carbonitrile], for which the 50% inhibitory concentration (IC50) was found to be 32 nM.

In turn, `CC1(COc2nc(N3CC4CCC(C3)N4)c3cc(C(F)(F)F)c(-c4ccc(F)c5sc(N)c(C#N)c45)c(F)c3n2)CC2(COC2)C1` [Example 55, 4-(4-(3,8-diazabicyclo[3.2.1]octan-3-yl)-8-fluoro-2-((6-methyl-2-oxaspiro[3.3]heptan-6-yl)methoxy)-6-(trifluoromethyl)quinazolin-7-yl)-2-amino-7-fluorobenzo[b]thiophene-3-carbonitrile] gave an IC50 of 332 nM.

Compound `COCC12CC(COc3nc(N4CC5CCC(C4)N5)c4cc(C(F)(F)F)c(-c5ccc(F)c6sc(N)c(C#N)c56)c(F)c4n3)(C1)C(C)(C)O2` [Example 56, 4-(4-(3,8-diazabicyclo[3.2.1]octan-3-yl)-8-fluoro-2-((1-(methoxymethyl)-3,3-dimethyl-2-oxabicyclo[2.1.1]hexan-4-yl)methoxy)-6-(trifluoromethyl)quinazolin-7-yl)-2-amino-7-fluorobenzo[b]thiophene-3-carbonitrile] gave a half-inhibitory concentration (IC50) of 109 nM.

Take `N#Cc1c(N)sc2c(F)ccc(-c3c(C(F)(F)F)cc4c(N5CC6CCC(C5)N6)nc(OCC5(CO)COC5)nc4c3F)c12` [Example 57, 4-(4-(3,8-diazabicyclo[3.2.1]octan-3-yl)-8-fluoro-2-((3-(hydroxymethyl)oxetan-3-yl)methoxy)-6-(trifluoromethyl)quinazolin-7-yl)-2-amino-7-fluorobenzo[b]thiophene-3-carbonitrile]: the midpoint of inhibition, the IC50, lay at 294 nM.

The IC50 is the concentration needed to halve the response being measured. A high value points to lower potency.
